According to patent US20050209278A1, “Piperidinyl- and piperazinyl-sulfonylmethyl hydroxamic acids and their use as protease inhibitors” (priority 2002, published 2005):
Read-outs that look alike come from different tables or passages of the source.

Experiments:
MMP-9 = biological target: T1, MMP-9 (Homo sapiens, UniProt P14780); test: In vitro MMP inhibition, Ki determination (fluorogenic substrate II); type: biochemical
T1 construct: made in house; host or cells: MMP-9-transfected HT1080 cells (spent media)
T1 sequence (P14780 107-707 limits assumed): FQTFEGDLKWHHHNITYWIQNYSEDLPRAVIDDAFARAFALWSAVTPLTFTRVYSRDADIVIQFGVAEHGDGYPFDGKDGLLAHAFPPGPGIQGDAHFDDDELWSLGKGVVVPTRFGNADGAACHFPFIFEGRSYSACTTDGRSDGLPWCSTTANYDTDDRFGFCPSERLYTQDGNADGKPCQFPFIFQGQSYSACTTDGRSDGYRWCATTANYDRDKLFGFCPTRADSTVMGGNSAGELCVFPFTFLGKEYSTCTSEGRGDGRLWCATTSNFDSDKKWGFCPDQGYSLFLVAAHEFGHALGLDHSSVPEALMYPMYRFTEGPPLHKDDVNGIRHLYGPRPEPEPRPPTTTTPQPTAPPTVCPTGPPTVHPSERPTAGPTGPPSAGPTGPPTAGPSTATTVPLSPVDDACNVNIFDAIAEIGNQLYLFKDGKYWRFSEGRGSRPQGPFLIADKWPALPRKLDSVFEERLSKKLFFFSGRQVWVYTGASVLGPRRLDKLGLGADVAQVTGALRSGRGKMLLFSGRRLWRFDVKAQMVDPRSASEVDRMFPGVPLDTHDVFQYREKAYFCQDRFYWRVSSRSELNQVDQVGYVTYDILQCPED
Method in brief: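 HT1080-derived MMP-9, activated with APMA, trypsin or MMP-3, incubated 1 hr at room temperature with inhibitor and 4 μM fluorogenic substrate II (at or below Km) in pH 7.5 Tris/NaCl/CaCl2 buffer; ex 330/em 420 nm. Ki from Morrison-equation regression, without substrate correction.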

MMP-14 = biological target: T2, MMP-14 (Homo sapiens, UniProt P50281); test: as above; type: biochemical; settings: read-out: MMP-14 Ki
T2 construct: The catalytic domain enzyme was expressed in E. coli inclusion bodies, solubilized in urea; made in house
Method in brief: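 E. coli-expressed, refolded MMP-14 catalytic domain, activated with APMA or trypsin, in 100 mM Tris-HCl pH 7.5, 100 mM NaCl, 10 mM CaCl2, 0.05% Brij-type detergent. Apparent Ki by Morrison-equation regression of velocity vs inhibitor and enzyme concentration.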

Row | SMILES | Ki (MMP-9; value not in parenthesis) [nM] | Ki (MMP-14; value not in parenthesis) [nM] | Ki (MMP-9; value outside parentheses) [nM] | Ki (MMP-14; value outside parentheses) [nM]
1 | CCCCc1ccc(C2CCN(S(=O)(=O)C3(C(=O)NO)CCN(CCOC)CC3)CC2)s1 [Example 55] | 0.35 | 2450 | – | –
2 | O=C(NO)C1(S(=O)(=O)N2CCN(c3ccc(COCC(F)(F)C(F)F)cc3)CC2)CCOCC1 [Example 71] | 13 | – | – | –
3 | O=C(NO)C1(S(=O)(=O)N2CCN(c3ccc(COCC(F)(F)F)cc3)CC2)CCOCC1 [Example 72] | 2.86 | 7570 | – | –
4 | O=C(NO)C1(S(=O)(=O)N2CCN(c3ccc(OC4CCC4)c(F)c3)CC2)CCOCC1 [Example 73] | 7.97 | 2360 | – | –
5 | O=C(NO)C1(S(=O)(=O)N2CCN(c3ccc(OCc4ccccc4)cn3)CC2)CCOCC1 [Example 74] | 4.8 | 454 | – | –
6 | O=C(NO)C1(S(=O)(=O)N2CCN(c3ccc(-c4ccccc4)cc3)CC2)CCOCC1 [Example 76] | 0.5 | 358 | – | –
7 | O=C(NO)C1(S(=O)(=O)N2CCN(c3ccc(CCC(F)(F)F)cc3)CC2)CCOCC1 [Example 77] | 0.8 | 1180 | – | –
8 | CCN1CCC(C(=O)NO)(S(=O)(=O)N2CCN(c3ccc(OCCCC(F)(F)F)cc3)CC2)CC1 [Example 78] | 22.8 | > 10000 | – | –
9 | CC(C)COc1ccc(N2CCN(S(=O)(=O)C3(C(=O)NO)CCOCC3)CC2)cc1Cl [Example 79] | 41.5 | 8820 | – | –
10 | O=C(NO)C1(S(=O)(=O)N2CCN(c3ccc(OCCCC(F)(F)F)cc3F)CC2)CCOCC1 [Example 81] | 29.2 | 2430 | – | –
11 | O=C(NO)C1(S(=O)(=O)N2CCN(c3cccc(C(F)(F)F)c3)CC2)CCOCC1 [Example 82] | 249 | 1600 | – | –
12 | O=C(NO)C1(S(=O)(=O)N2CCN(c3ccc(OCCCC(F)(F)F)cn3)CC2)CCOCC1 [Example 83] | 4.21 | 981 | – | –
13 | CCCCOc1ccc(N2CCN(S(=O)(=O)C3(C(=O)NO)CCN(C(C)(C)C)CC3)CC2)c(F)c1 [Example 84] | 17.9 | > 10000 | – | –
14 | CCCCOc1ccc(N2CCN(S(=O)(=O)C3(C(=O)NO)Cc4ccccc4C3)CC2)nc1 [Example 85] | 1.17 | 1510 | – | –
15 | COCCN1CCC(C(=O)NO)(S(=O)(=O)N2CCN(c3ccc(OCCCCF)cc3)CC2)CC1 [Example 88] | 2.18 | 2760 | – | –
16 | O=C(NO)C1(S(=O)(=O)N2CCN(c3ccc(OCCCCF)cc3)CC2)CCOCC1 [Example 89] | 2.23 | 2800 | – | –
17 | CCCCOc1ccc(N2CCN(S(=O)(=O)C3(C(=O)NO)CCOCC3)CC2)c(F)c1 [Example 90] | 2.15 | 4550 | – | –
18 | CCCCc1ccc(N2CCN(S(=O)(=O)C3(C(=O)NO)CCOCC3)CC2)c(F)c1 [Example 91] | 0.452 | 1740 | – | –
19 | CCCCOc1ccc(N2CCN(S(=O)(=O)C3(C(=O)NO)CCN(c4nc5ccccc5s4)CC3)CC2)cc1 [Example 93] | 60.1 | 9860 | – | –
20 | O=C(NO)C1(S(=O)(=O)N2CCN(c3ccc(C(F)(F)F)cn3)CC2)CCOCC1 [Example 94] | 14.3 | 221 | – | –
21 | CCCCCc1ccc(N2CCN(S(=O)(=O)C3(C(=O)NO)CCN(c4ncccn4)CC3)CC2)nc1 [Example 95] | 0.99 | 597 | – | –

Row | SMILES | Ki (MMP-9; value not in parenthesis) [nM] | Ki (MMP-14; value not in parenthesis) [nM] | Ki (MMP-9; value outside parentheses) [nM] | Ki (MMP-14; value outside parentheses) [nM]
22 | CCCCc1ccc(N2CCN(S(=O)(=O)C3(C(=O)NO)CCN(c4cccnc4)CC3)CC2)nc1 [Example 96] | 0.21 | 816 | – | –
23 | CCCCOc1ccc(N2CCN(S(=O)(=O)C3(C(=O)NO)CCN(C(=O)OCC(C)(C)C)CC3)CC2)cc1 [Example 97] | 21.9 | > 10000 | – | –
24 | C#CCOC(=O)N1CCC(C(=O)NO)(S(=O)(=O)N2CCN(c3ccc(OCCCC)cc3)CC2)CC1 [Example 98] | 1.24 | 1620 | – | –
25 | CCCCc1ccc(N2CCN(S(=O)(=O)C3(C(=O)NO)CCN(c4ncccn4)CC3)CC2)nc1 [Example 99] | 0.16 | 225 | – | –
26 | CCCCOc1ccc(N2CCN(S(=O)(=O)C3(C(=O)NO)CCOCC3)CC2)nc1 [Example 100] | 0.3 | 411 | – | –
27 | CCCCOc1ccc(N2CCN(S(=O)(=O)C3(C(=O)NO)CCN(c4ccc(Cl)c(Cl)c4)CC3)CC2)cc1 [Example 250] | 73.9 | > 10000 | – | –
28 | CCCCOc1ccc(N2CCN(S(=O)(=O)C3(C(=O)NO)CCN(c4ccc(Cl)cc4)CC3)CC2)cc1 [Example 251] | – | – | 57.4 | > 10000
29 | CCCCOc1ccc(N2CCN(S(=O)(=O)C3(C(=O)NO)CCN(Cc4ccco4)CC3)CC2)cc1 [Example 252] | – | – | 1.43 | 5180
30 | CCCCOc1ccc(N2CCN(S(=O)(=O)C3(C(=O)NO)CCN(C(N)=O)CC3)CC2)cc1 [Example 253] | – | – | 1.57 | 1930
31 | CCCCOc1ccc(N2CCN(S(=O)(=O)C3(C(=O)NO)CCN(C(=O)N(C)C)CC3)CC2)cc1 [Example 254] | – | – | 0.63 | 856
32 | CCCCOc1ccc(N2CCN(S(=O)(=O)C3(C(=O)NO)CCN(C(=O)c4ccccc4)CC3)CC2)cc1 [Example 255] | – | – | 2.54 | 5660
33 | CCCCOc1ccc(N2CCN(S(=O)(=O)C3(C(=O)NO)CCN(c4ccc(C(F)(F)F)cn4)CC3)CC2)cc1 [Example 257] | – | – | 37 | > 10000
34 | O=C(NO)C1(S(=O)(=O)N2CCN(c3ccc(SC(F)(F)F)cc3)CC2)CCS(=O)(=O)CC1 [Example 258] | – | – | 457 | 4890
35 | CCCCOc1ccc(N2CCN(S(=O)(=O)C3(C(=O)NO)CCN(C(=O)c4ccncc4)CC3)CC2)cc1 [Example 259] | – | – | 1.35 | 2650
36 | CCCCOc1ccc(N2CCN(S(=O)(=O)C3(C(=O)NO)CCN(C(=O)C4CC4)CC3)CC2)cc1 [Example 260] | – | – | 0.946 | 2800
37 | CCc1ccc(N2CCN(S(=O)(=O)C3(C(=O)NO)CCCC3)CC2)nc1 [Example 261] | – | – | 1.53 | 48.1
38 | CCc1ccc(N2CCN(S(=O)(=O)C3(C(=O)NO)CCCCC3)CC2)nc1 [Example 263] | – | – | 0.634 | 34
39 | CCCCOc1ccc(N2CCN(S(=O)(=O)C3(C(=O)NO)CCN(c4ccccc4)CC3)CC2)cc1 [Example 264] | – | – | 20.4 | > 10000
40 | CCCCOc1ccc(N2CCN(S(=O)(=O)C3(C(=O)NO)CCN(C(=O)CC(F)(F)F)CC3)CC2)cc1 [Example 265] | – | – | 2.14 | 3790
41 | CCCCOc1ccc(N2CCN(S(=O)(=O)C3(C(=O)NO)CCN(C(=O)c4cccnc4)CC3)CC2)cc1 [Example 266] | – | – | 0.957 | 2390
42 | CCCCOc1ccc(N2CCN(S(=O)(=O)C3(C(=O)NO)CCN(C(=O)C(C)(C)C)CC3)CC2)cc1 [Example 267] | – | – | 2.54 | > 10000

Row | SMILES | Ki (MMP-9; value not in parenthesis) [nM] | Ki (MMP-14; value not in parenthesis) [nM] | Ki (MMP-9; value outside parentheses) [nM] | Ki (MMP-14; value outside parentheses) [nM]
43 | CCCCOc1ccc(N2CCN(S(=O)(=O)C3(C(=O)NO)CCN(C(=O)COC)CC3)CC2)cc1 [Example 268] | – | – | 1.08 | 1390
44 | CCCCOc1ccc(N2CCN(S(=O)(=O)C3(C(=O)NO)CCN(C=O)CC3)CC2)cc1 [Example 269] | – | – | 0.953 | 1200
45 | CCCCc1ccc(N2CCN(S(=O)(=O)C3(C(=O)NO)CCN(CCOC)CC3)CC2)nc1 [Example 270] | – | – | 0.205 | 1110
46 | CCCCOc1ccc(N2CCN(S(=O)(=O)C3(C(=O)NO)CCN(C(=O)CO)CC3)CC2)cc1 [Example 271] | – | – | 1.49 | 1460
47 | CCCCCc1ccc(N2CCN(S(=O)(=O)C3(C(=O)NO)CCN(C4CC4)CC3)CC2)cc1 [Example 272] | – | – | 0.542 | 4350
48 | CCCCOc1ccc(N2CCN(S(=O)(=O)C3(C(=O)NO)CCN(C(=O)C(C)C)CC3)CC2)cc1 [Example 273] | – | – | 1.21 | 5090
49 | CCCCOc1ccc(N2CCN(S(=O)(=O)C3(C(=O)NO)CCN(C(=O)CC)CC3)CC2)cc1 [Example 274] | – | – | 1.66 | 3030
50 | CCCCOc1ccc(N2CCN(S(=O)(=O)C3(C(=O)NO)CCN(c4ccc(C)nn4)CC3)CC2)cc1 [Example 275] | – | – | 0.807 | 818
51 | CCCCOc1ccc(N2CCN(S(=O)(=O)C3(C(=O)NO)CCNCC3)CC2)cc1 [Example 276] | – | – | 9.39 | > 10000
52 | CCCCOc1ccc(N2CCN(S(=O)(=O)C3(C(=O)NO)CCN(C(=O)c4ccccn4)CC3)CC2)cc1 [Example 277] | – | – | 0.95 | 3020
53 | CCCCOc1ccc(N2CCN(S(=O)(=O)C3(C(=O)NO)CCN(C(=O)CCCC)CC3)CC2)cc1 [Example 278] | – | – | 2 | 5260
54 | CC(C)CCOc1ccc(N2CCN(S(=O)(=O)C3(C(=O)NO)CCOCC3)CC2)cc1 [Example 279] | – | – | 3.07 | 4270
55 | CCCCOc1ccc(N2CCN(S(=O)(=O)C3(C(=O)NO)CCN(C)CC3)CC2)cc1 [Example 280] | – | – | 3.61 | 7310
56 | CCCCOc1ccc(N2CCN(S(=O)(=O)C3(C(=O)NO)CCN(c4ccc(Cl)nn4)CC3)CC2)cc1 [Example 281] | – | – | 2.16 | 1630
57 | CCCCOc1ccc(N2CCN(S(=O)(=O)C3(C(=O)NO)CCN(C(C)=O)CC3)CC2)cc1 [Example 282] | – | – | 0.098 | 1480
58 | CCCCOc1ccc(N2CCN(S(=O)(=O)C3(C(=O)NO)CCN(c4ccc(C)cc4)CC3)CC2)cc1F [Example 296] | – | – | 47.6 | –
59 | COCCOc1ccc(N2CCN(S(=O)(=O)C3(C(=O)NO)CCN(C4CC4)CC3)CC2)cc1F [Example 297] | – | – | 19.5 | –
60 | CCCCOc1ccc(N2CCN(S(=O)(=O)C3(C(=O)NO)CCN(C4CC4)CC3)CC2)cc1 [Example 301] | – | – | 9.11 | –
61 | CCCCc1ccc(C2CCN(S(=O)(=O)C3(C(=O)NO)CCOCC3)CC2)nc1 [Example 307] | – | – | – | 1290
